ChEMBL document CHEMBL1139541 (J Med Chem, 2005)

Columns and labels:
[1] = molecular target: Melatonin receptor type 1A (Homo sapiens, UniProt P48039); experiment: Inhibition of 2-[125I]iodomelatonin binding to human melatonin receptor type 1A (MT1) expressed in […] cells; format: cell-based
[2] = molecular target: T1, Melatonin receptor type 1B (Homo sapiens, UniProt P49286); experiment: Inhibition of 2-[125I]iodomelatonin binding to human melatonin receptor MT2 expressed in […] cells; format: cell-based
T1 sequence (P49286 whole entry): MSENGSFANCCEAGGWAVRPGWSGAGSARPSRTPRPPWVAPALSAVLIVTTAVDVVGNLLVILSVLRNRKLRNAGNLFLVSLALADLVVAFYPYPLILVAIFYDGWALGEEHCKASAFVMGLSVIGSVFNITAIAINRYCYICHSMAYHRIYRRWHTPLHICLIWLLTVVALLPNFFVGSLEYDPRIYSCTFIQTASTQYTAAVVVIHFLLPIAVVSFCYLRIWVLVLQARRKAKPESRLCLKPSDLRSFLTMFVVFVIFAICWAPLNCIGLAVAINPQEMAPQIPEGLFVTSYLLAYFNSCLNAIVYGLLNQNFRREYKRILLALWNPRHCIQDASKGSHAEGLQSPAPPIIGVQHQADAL

[3] = molecular target: T2, Melatonin receptor type 1B (Homo sapiens) (UniProt P49286); experiment: Intrinsic activity in [35S]GTP-gamma-S, binding at human melatonin receptor MT2 relative to melatonin; format: functional
T2 sequence (whole entry): T1 sequence (P49286 whole entry)

Sequence of Melatonin receptor type 1A (P48039 whole entry): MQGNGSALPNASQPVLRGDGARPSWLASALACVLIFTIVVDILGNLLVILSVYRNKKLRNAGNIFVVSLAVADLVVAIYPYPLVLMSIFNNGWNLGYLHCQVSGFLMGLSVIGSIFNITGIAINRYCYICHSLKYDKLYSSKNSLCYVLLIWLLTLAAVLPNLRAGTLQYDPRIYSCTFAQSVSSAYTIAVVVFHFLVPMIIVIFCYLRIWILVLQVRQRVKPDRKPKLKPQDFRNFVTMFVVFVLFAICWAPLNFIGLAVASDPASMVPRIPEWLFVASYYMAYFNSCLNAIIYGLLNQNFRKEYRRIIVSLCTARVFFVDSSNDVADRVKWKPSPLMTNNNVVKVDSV

Row | Ki [1] [µM] | Ki [2] [nM] | IA [3] | SMILES
1 | > 10 | 288 | 0.08 | CCC(=O)NCc1cc2c(OC)cccc2n1S(=O)(=O)c1ccccc1
2 | 0.105 | 0.0158 |  | CCC(=O)NC1Cc2ccccc2C(c2ccccc2)C1 (centres undefined)
3 |  |  | 0.01 | CCC(=O)NCc1cc2c(OC)cccc2n1Cc1ccc(Cl)cc1
4 | > 10 | 6030 | 0.16 | CCC(=O)NCc1cc2c(OC)cccc2n1Cc1c(C)cccc1C
5 | > 10 | 1820 | -0.08 | CCC(=O)NCc1cc2c(OC)cccc2n1C(=O)c1ccc(Cl)cc1
6 | > 1 | 9.77 |  | COc1cc2c(cc1OC)C(CC(c1ccccc1)c1ccccc1)N(C(C)=O)CC2 (centres undefined)
